The source of these data is patent US9999619B2, “Piperidin-4-yl azetidine derivatives as JAK1 inhibitors” (Incyte Corporation, priority 2010, dated 2018).

Common to all, as to assay type: biochemical
Experiment [1] has as its target human JAK1 (a.a. 837-1142). Nature of the experiment: In vitro JAK kinase assay (HTRF, phosphorylation of a biotinylated peptide), JAK1. As to conditions: ratio of JAK2 IC50 to JAK1 IC50, measured at 1 mM ATP. The method, boiled down:
(§1)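 N-terminally His-tagged catalytic domains, baculovirus-expressed in insect cells and purified, were used as enzyme. Reactions ran 1 hr at room temperature and were stopped with a mix of 45 mM EDTA, 300 nM SA-APC and 6 nM Eu-Py20. The HTRF signal was read after 40 min of antibody binding.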

The target of experiment [2] is human JAK1 (a.a. 837-1142) (Homo sapiens, UniProt P23458). Described as above. To be noted: measured at 1 mM ATP. In a few lines:
as §1

A further experiment concerns the target Jak2 (a.a. 828-1132) (Homo sapiens (Human), UniProt O60674). The experiment can be described thus: In vitro JAK kinase assay (HTRF, phosphorylation of a biotinylated peptide), JAK2. As to conditions: measured at 1 mM ATP. The method, boiled down:
as §1

pIC50: −log10 of the molar value. Where only a bound is given, the exact number is not on record here.

Chain of Jak2 (a.a. 828-1132) (O60674 828-1132): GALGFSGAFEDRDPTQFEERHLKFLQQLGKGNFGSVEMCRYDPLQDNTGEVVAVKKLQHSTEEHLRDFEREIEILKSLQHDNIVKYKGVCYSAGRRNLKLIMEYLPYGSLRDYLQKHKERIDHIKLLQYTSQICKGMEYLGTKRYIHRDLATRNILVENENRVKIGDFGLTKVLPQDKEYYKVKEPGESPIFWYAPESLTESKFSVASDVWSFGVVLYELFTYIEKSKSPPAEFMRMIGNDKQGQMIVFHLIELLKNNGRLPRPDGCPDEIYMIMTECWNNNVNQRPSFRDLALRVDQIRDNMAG

As to `N#CCC1(n2cc(-c3ncnc4[nH]ccc34)cn2)CN(C2CCN(C(=O)c3ccc(O)c(F)c3)CC2)C1` [Example 6, {1-[1-(3-fluoro-4-hydroxybenzoyl)piperidin-4-yl]-3-[4-(7H-pyrrolo[2,3-d]pyrimidin-4-yl)-1H-pyrazol-1-yl]azetidin-3-yl}acetonitrile], in experiment [1], the “IC50 Ratio JAK2/JAK1” value amounted to 14.3. The pIC50 in experiment [2] was ≥ 8.30; on Jak2 (a.a. 828-1132) it was 7.30 to 8.00.

For `N#CCC1(n2ccc(-c3ncnc4[nH]ccc34)c2)CN(C2CCN(C(=O)c3cc(C(F)(F)F)ccc3F)CC2)C1` [Example 273, {1-{1-[2-fluoro-5-(trifluoromethyl)benzoyl]piperidin-4-yl}-3-[3-(7H-pyrrolo[2,3-d]pyrimidin-4-yl)-1H-pyrrol-1-yl]azetidin-3-yl}acetonitrile], the “IC50 Ratio JAK2/JAK1” value in experiment [1] is recorded as 4.4. The negative-log IC50 (pIC50) in experiment [2] was ≥ 8.30; at Jak2 (a.a. 828-1132) it was ≥ 8.00.

Take `N#CCC1(n2cc(-c3ncnc4[nH]ccc34)cn2)CN(C2CCN(C(=O)OCc3ccc(F)c(F)c3)CC2)C1` [Example 394, 3,4-difluorobenzyl 4-{3-(cyanomethyl)-3-[4-(7H-pyrrolo[2,3-d]pyrimidin-4-yl)-1H-pyrazol-1-yl]azetidin-1-yl}piperidine-1-carboxylate]: the “IC50 Ratio JAK2/JAK1” value in experiment [1] was 11.1. In addition, the pIC50 in experiment [2] is 7.70 to 8.30; against Jak2 (a.a. 828-1132), 7.00 to 7.30.

For `N#CCC1(n2cc(-c3ncnc4[nH]ccc34)cn2)CN(C2CCN(C(=O)c3c(F)c(F)cc(F)c3F)CC2)C1` [Example 56, {3-[4-(7H-pyrrolo[2,3-d]pyrimidin-4-yl)-1H-pyrazol-1-yl]-1-[1-(2,3,5,6-tetrafluorobenzoyl)piperidin-4-yl]azetidin-3-yl}acetonitrile], in experiment [1], the “IC50 Ratio JAK2/JAK1” value was 8.8. Moreover, the figures for the negative-log IC50 (pIC50) (in experiment [2]; against Jak2 (a.a. 828-1132)) were ≥ 8.30 and ≥ 8.00, respectively.

For `N#CCC1(n2cc(-c3ncnc4[nH]ccc34)cn2)CN(C2CCN(C(=O)c3csc4ccccc34)CC2)C1` [Example 96, {1-[1-(1-benzothien-3-ylcarbonyl)piperidin-4-yl]-3-[4-(7H-pyrrolo[2,3-d]pyrimidin-4-yl)-1H-pyrazol-1-yl]azetidin-3-yl}acetonitrile], in experiment [1], the “IC50 Ratio JAK2/JAK1” value is given as 0.5. Moreover, the pIC50 was ≥ 8.30 in experiment [2] and ≥ 8.00 on Jak2 (a.a. 828-1132).

Consider `N#CCC1(n2cc(-c3ncnc4[nH]ccc34)cn2)CN(C2CCN(C(=O)Nc3cscc3Br)CC2)C1` [Example 159, N-(4-bromo-3-thienyl)-4-{3-(cyanomethyl)-3-[4-(7H-pyrrolo[2,3-d]pyrimidin-4-yl)-1H-pyrazol-1-yl]azetidin-1-yl}piperidine-1-carboxamide], for which, in experiment [1], the “IC50 Ratio JAK2/JAK1” value was determined as 15.0. In addition, the pIC50 was ≥ 8.30 in experiment [2] and 7.30 to 8.00 at Jak2 (a.a. 828-1132).

As to `Cn1ccc(S(=O)(=O)N2CCC(N3CC(CC#N)(n4cc(-c5ncnc6[nH]ccc56)cn4)C3)CC2)n1` [Example 251, {1-{1-[(1-methyl-1H-pyrazol-3-yl)sulfonyl]piperidin-4-yl}-3-[4-(7H-pyrrolo[2,3-d]pyrimidin-4-yl)-1H-pyrazol-1-yl]azetidin-3-yl}acetonitrile], the “IC50 Ratio JAK2/JAK1” value in experiment [1] worked out at 4.9. Further, the pIC50 in experiment [2] is ≥ 8.30; on Jak2 (a.a. 828-1132), ≥ 8.00.

In the case of `N#CCC1(n2cc(-c3ncnc4[nH]ccc34)cn2)CN(C2CCN(C(=O)c3ccc(-c4ccncc4)c(F)c3)CC2)C1` [Example 117, {1-[1-(3-fluoro-4-pyridin-4-ylbenzoyl)piperidin-4-yl]-3-[4-(7H-pyrrolo[2,3-d]pyrimidin-4-yl)-1H-pyrazol-1-yl]azetidin-3-yl}acetonitrile], in experiment [1], the “IC50 Ratio JAK2/JAK1” value amounted to 10.0. Also, the pIC50 in experiment [2] is ≥ 8.30; against Jak2 (a.a. 828-1132) it was 7.30 to 8.00.

In the case of `COC(=O)c1cc(F)ccc1NC(=O)N1CCC(N2CC(CC#N)(n3cc(-c4ncnc5[nH]ccc45)cn3)C2)CC1` [Example 207, methyl 2-{[(4-{3-(cyanomethyl)-3-[4-(7H-pyrrolo[2,3-d]pyrimidin-4-yl)-1H-pyrazol-1-yl]azetidin-1-yl}piperidin-1-yl)carbonyl]amino}-5-fluorobenzoate], the “IC50 Ratio JAK2/JAK1” value in experiment [1] is reported as 2.5. The pIC50 in experiment [2] was ≥ 8.30; on Jak2 (a.a. 828-1132) it was ≥ 8.00.
